We go through one compound from patent US12616196B2, “Long protection mosquito repellent ointment” (MAIA AFRICA SAS, priority 2019, dated 2026).

In one test the test system is Anopheles gambiae s.l. As to the kind of experiment: Field human landing catches on treated lower legs, Goden village (WHO Guidelines 2009). Type of test: in vivo. Particulars: for Median CPT (complete protection time): Kaplan-Meier. As for the experimental part: (§1) The protection time provided by ointment No. 9 of Example 1 has been measured according to the “Guidelines for efficacy testing of mosquito repellents for human skin” published by the World Health Organization in 2009 (noted hereafter “WHO Guidelines, 2009”). These guidelines describe how human landing catches must be performed on volunteers. The effectiveness of ointment No. 9 was evaluated and compared to a 20% ethanol solution of DEET (N, N-Diethyl-3-methylbenzamide), being the positive control, and an ethanol solution being the negative control.
(§2) Briefly, the study was carried out in real conditions at the Goden village (12°25′N, 1°20′W), a rural village in the locality of Gampela, 25 km north-east of Ouagadougou, the capital city of Burkina Faso. Goden is in the Sudanian Savanna with approximately 800 inhabitants mainly belonging to the Mossi ethnic group, mostly devoted to agriculture and rearing few animals such as dogs, pigs and others. Goden is known for its high density of malaria vectors due to its proximity to the Massiri river. This study was carried out during the high malaria transmission period, when the mosquito density was the highest A preliminary assessment of the collection site was carried out by undertaking captures on human volunteers before the tests themselves.
A total of twenty volunteers have been recruited from the Goden village and have been trained for the nocturnal collection of mosquitoes on human bait using mouth aspirator and flash torch known as Human Landing Catches (HCL). The age of the volunteers ranged from 18 to 50 years old. After receiving explanation of the aims, benefits and risks of the study, they signed a written informed consent. The composition of the ointment was not disclosed to the volunteers. Volunteers were instructed not to use any fragranced soap or perfume, tobacco or alcohol 12 hours before the start and throughout the experiments. Before applying treatments, the lower leg of volunteers was washed with neutral soap, rinsed with 70% of ethanol solution and naturally dried. Once their legs treated volunteers were also asked to avoid rubbing, touching or wetting the repellent-treated area.
Three treatments have been carried out in the study: • (i) one negative control (ethanol 100%), • (ii) two treatments of 20% DEET diluted in ethanol 100% of technical quality used as a positive control, since this repellent is considered as the reference, • (iii) two treatments of ointment No. 9.
The products were applied to the bare leg of the volunteers and the areas of application were exposed to mosquito bites in the field. Volunteers applied to their exposed leg: Ointment No. 9 at a dosage of 2 mg/cm^2, and 20% DEET in ethanol for the positive control at a dosage of 1 ml per 600 cm^2.
To establish the amount of repellent required for application in the experiments, the surface area of the leg of each volunteer were determined by first measuring the circumferences expressed in centimeter (cm) just below the knee, and above the ankle, multiplied by the length of the lower leg, measured from the knee to the ankle. The surface area (in cm^2) of skin was calculated according to formula (1) below: Area=½(Ck+Ca)Dka, (1) wherein Ck is the circumference below the knee in cm, Ca is the circumference above the ankle in centimeter, and Dka is the distance in centimeter between Ca and Ck. The amount needed for each volunteer was then determined depending on their leg length. In addition, the quantity of product left in bottles was weighed using a precision weighing balance (KERN & SOHN GmbH) to determine the amount applied by each volunteer. Overall, the average amount applied was 2.4±0.2 g per 1189±79.2 cm^2 and per volunteer's lower leg, leading to 2 mg/cm^2 of Ointment No. 9 and […] of a 20% DEET solution.
Volunteers were divided into five groups of four volunteers. All the members of a group received the same treatment at the same time. […]

The test system of a further test is Anopheles funestus. As to the kind of experiment: Field human landing catches, Goden village. In kind it is in vivo. As to conditions: total catch during the tests, collection 6 pm to 6 am. The method, then: as §1
as §2, with “themselves. […]” for “themselves.”

Another test deals with Other Anopheles. As to the kind of experiment: Field human landing catches, Goden village. In kind it is in vivo. As to conditions: total catch during the tests, collection 6 pm to 6 am. The method, then: as §1
as §2, with “themselves. […]” for “themselves.”

In another test the test system is Culicine. The test can be described thus: Field human landing catches, Goden village. Type of test: in vivo, Culicine (Aedes). Particulars: total catch during the tests, collection 6 pm to 6 am. As for the experimental part:
as §1
as §2, with “themselves. […]” for “themselves.”

The subject of another test is mosquitoes. The test can be described thus: Field human landing catches, hourly mosquito biting rate. Type of test: in vivo. Particulars: with 95% CI. As for the experimental part:
as §1
as §2, with “themselves. […]” for “themselves.”

Another test relates to An. arabiensis (Kingani). As to the kind of experiment: Semi-field system (SFS) recapture of released mosquitoes on treated lower limbs. In kind it is in vivo. As for the experimental part: (§3) The study was conducted under ambient condition in the semi-field system (SFS) located in Bagamoyo district at the Ifakara Health Institute at Bagamoyo branch in Tanzania. Bagamoyo is located on the coast region of the Indian Ocean between latitudes 6° and 8′ South and between longitudes 30° and 37′ East. The district experience annual rainfall ranging between 800 mm and 1000 mm, temperature ranging between 22° C. and 33° C., and mean relative humidity of 73%.
(§4) Three laboratory-reared mosquito strains, aged 6 days old, sugar starved for 8 hours, nulliparous females, reactive to human odor on the day of the experiment, have been used for this experiment. Mosquito strains used were: (i) the pyrethroid insecticide resistant (20% mortality) An. arabiensis (Kingani, (ii) fully pyrethroid susceptible An. gambiae s.s. (Kisumu) and (iii) Ae. aegypti (Bagamoyo). The vector control product-testing unit of IHI supplied all mosquitoes used in the experiments.
(§5) The mosquitoes were reared in the insectary following MR4 guideline (MR4. Methods in Anopheles Research 2016; 2015 Edition). Adults were kept inside cages measuring 30 cm×30 cm×30 cm. Only hyperactive mosquitoes were selected at least 8 hours before the experiment. […] About 30 minutes before the experiment, mosquitoes were transferred to the SFS to acclimatize the environmental conditions. The SFS offered the following advantages; 1) volunteers were exposed to laboratory-reared mosquitoes only, 2) experiments were run using a known number of mosquitoes throughout the experiments; 3) mosquitoes used were of known age (6 days), physiological status and avidity. These features improve data quality and less results variability between days and volunteers.
(§6) Three treatments have been tested: (i) Ethanol 100% as a negative control, (ii) 20% DEET diluted in ethanol 100% as a positive control, and (iii) ointment No. 9.
(§7) Volunteers wore shorts, closed shoes and bug jacket to ensure mosquitoes had access to the lower limbs only. Volunteers applied 20% DEET and ointment No. 9 at an average rate of 2 mg/cm^2 of the repellent to the lower limbs using latex glove to minimize absorption onto volunteer's hand. After application, an empty plastic cups were weighed to determine the quantity of repellent left in the cup. The composition of the ointment was not disclosed to the volunteers.
(§8) The study was divided into two experiments: one for Anopheles mosquitoes conducted in the late evening and the other for Ae. aegypti mosquitoes conducted early in the morning. The experiment for Anopheles started at 17:55 and that for Ae. aegypti at 06:00 hours.
(§9) The experiments were conducted for a total of 18 days. During the first 9 days 100 mosquitoes (50 per species) were released in each compartment starting at 18:00 hours for Anopheles species and at 06:00 hours for Ae. aegypti. After the release, the number of mosquitoes recaptured by volunteers who applied 20% DEET and ointment No. 9 was insignificant up to 6 hours of recapture period. This warranted to extend the recapture period to 12 hours 9 last days.
(§10) During the last 9 days, we used same volunteers, compartments and rotation schedule. Mosquitoes released were 100 per species and volunteers recaptured mosquitoes landing on their lower limbs using a mouth aspirator up to 12 hours of recapture period. Volunteers recorded a time the first mosquito of each species landed on the limb and the recaptured mosquito was placed in a paper cup labelled with volunteers unique identification code, time of collection, position and treatment code. The volunteer kept collecting subsequent mosquitoes up to 12 hours with cups changed after every hour.
(§11) At the end of recapture time, mosquitoes were killed by putting in the refrigerator for about 30 minutes and then sorted to species level. If the mosquito recaptured in the control was below 50 percent, the experiment was considered invalid, data discarded and the experiment repeated. […]

For test [1], the system named is An. gambiae s.s. (Kisumu). The test is described as above. Type of test: in vivo. As for the experimental part: as §3, §4, §5, §6, §7, §8, §9, §10, §11
The next test has as its system Ae. aegypti (Bagamoyo). The test is described as above. In kind it is in vivo, Aedes aegypti. The method, then: as §3, §4
The mosquitoes were reared in the insectary following MR4 guideline (MR4. Methods in Anopheles Research 2016; 2015 Edition). Adults were kept inside cages measuring 30 cm×30 cm×30 cm. Only hyperactive mosquitoes were selected at least 8 hours before the experiment. […] About 30 minutes before the experiment, mosquitoes were transferred to the SFS to acclimatize the environmental conditions. […]
(§12) Volunteers wore shorts, closed shoes and bug jacket to ensure mosquitoes had access to the lower limbs only. […] After application, an empty plastic cups were weighed to determine the quantity of repellent left in the cup. […]
(§13) During the last 9 days, we used same volunteers, compartments and rotation schedule. […] Volunteers recorded a time the first mosquito of each species landed on the limb and the recaptured mosquito was placed in a paper cup labelled with volunteers unique identification code, time of collection, position and treatment code. […]

For test [2], the system named is An. arabiensis (Kingani), An. gambiae s.s. (Kisumu), Ae. aegypti (Bagamoyo). The test can be described thus: Semi-field system (SFS), all species tested. In kind it is in vivo, Anopheles and Aedes mosquitoes. As for the experimental part:
as §3
Three laboratory-reared mosquito strains, aged 6 days old, sugar starved for 8 hours, nulliparous females, reactive to human odor on the day of the experiment, have been used for this experiment. […]
as §12, §13

Regarding `CCN(CC)C(=O)c1cccc(C)c1` [20% DEET, N,N-diethyl-3-méthylbenzamide], the percentage of repellency entry with Anopheles gambiae s.l. (after 3 h (10 hours after application)) is recorded as “under 80%”. The “Median CPT (complete protection time)” value was found to be 480 min in the test on Anopheles gambiae s.l. (indoor and outdoor together); 480 min in the test with Anopheles gambiae s.l. (indoor); 480 min in the test with Anopheles gambiae s.l. (outdoor). For the same compound, the “mosquitoes caught by treatment” value is on record as 686 in the test with Anopheles gambiae s.l. (total catch during the tests, collection 6 pm to 6 am); 1 in the test on Anopheles funestus; 1 in the test with Other Anopheles; 7 in the test with Culicine. Moreover, the “increase of protection time compared to Ethanol” value in the test on Anopheles gambiae s.l. (versus negative control Ethanol) is given as “four-fold”. For the same compound, the “average mosquito bites received per person per hour” value in the test on mosquitoes was 1.01 (95%: 0.76-1.33) per person per hour. Moreover, the “Percentage protection (protective efficacy)” value with An. arabiensis (Kingani) (12-hour recapture time) is 97.2%; in test [1] (12-hour recapture time), 96.8%; in the test on Ae. aegypti (Bagamoyo) (12-hour recapture time) it was 93.1%. Further, the Percentage recapture in the test on An. arabiensis (Kingani) (12-hour recapture time) turned out to be 2.7%; in [1] (12-hour recapture time) it was 2.5%; in the test with Ae. aegypti (Bagamoyo) (12-hour recapture time), 4.8%. For the same compound, the “Average CRT (average complete protection time, CPT)” value with An. arabiensis (Kingani) (up to 12 hours recapture) stood at 580.9 min; in [1] (up to 12 hours recapture), 575 min; with Ae. aegypti (Bagamoyo) (up to 12 hours recapture), 436.9 min. Further, the protective efficacy in test [2] (6-hour recapture time, all species tested) is listed as 100%. Further, the “number of mosquitoes recaptured” value in test [2] (up to 6 hours of recapture period) is listed as “insignificant”.
